Measurements from patent US20250320194A1, “PHARMACEUTICALLY ACCEPTABLE SALT AND CRYSTAL FORM OF FUSED PYRIDINE RING DERIVATIVE AND PREPARATION METHOD THEREFOR” (Jiangsu Hengrui Pharmaceuticals Co., Ltd., priority 2021, published 2025).

Legend:
[1] = Hygroscopicity of salt crystal forms (DVS, 25° C.); assay type: physicochemical; details: for Hygroscopicity 0.0% RH-95.0% RH / Hygroscopicity 20.0% RH-80.0% RH: DVS, 25° C.; for Crystal form: after DVS
Protocol: The test adopts SMS DVS Advantage, at 25° C., with a humidity range of 0 to 95% and a step of 10%. The judgment standard is that the dM/dT of each gradient mass change is less than 0.002%, TMAX is 360 minutes, and the cycle is two times. • 5. Cation chromatography • Instrument model: DIONEX AQUION ion chromatograph, USA • Detection method: conductivity; separation column: IonPac CS16-CG16 • Eluent: MSA 20Mm • Flow rate: 1.0 ml/min • 6. Anion chromatography • Instrument model: DIONEX INTEGRION HPIC ion chromatograph, USA • Detection method: conductivity; separation column: DionexIonPac™-AS11-HC • Eluent: EGC-500-KOH • Flow rate: 1.5 ml/min
Using Surface Measurement Systems advantage, at 25° C., the humidity starts from 50%, the humidity range is 0% to 95%, the step is 10%. The judgment standard was that the dM/dT of each gradient mass change is less than 0.002%, TMAX360 min, and the cycle was two times. The hygroscopicity of different salt crystal forms of the compound of formula I was investigated respectively.

[2] = Stability under influencing factors (high temperature, high humidity, open, 30 days)

CC(C)(C#Cc1nc(C(Cc2cc(F)cc(F)c2)NC(=O)Cn2nc(C(F)(F)F)c3c2C(F)(F)C2CC32)c(-c2ccc(Cl)c3c([N-]S(C)(=O)=O)nn(CC(F)(F)F)c23)c2c1CCC2)S(C)(=O)=O.C[N+](C)(C)CCO (centres unmarked) [Crystal form B of the choline salt]
98.36%: Purity % ([2]; 60° C., 10 days) | Purity % ([2]; 60° C., 30 days) | Purity % ([2]; 75% RH, 30 days)
9.92%: Hygroscopicity 0.0% RH-95.0% RH [1]
98.35%: Purity % ([2]; 40° C., 30 days) | Purity % ([2]; 75% RH, 5 days) | Purity % ([2]; 75% RH, 10 days) | Purity % ([2]; 92.5% RH, 30 days)
98.33%: Purity % ([2]; 40° C., 10 days)
98.39%: Purity % ([2]; 60° C., 5 days)
White solid: Color, properties ([2]; 40° C., 5 days) | Color, properties ([2]; 40° C., 10 days) | Color, properties ([2]; 40° C., 30 days) | Color, properties ([2]; 60° C., 5 days) | Color, properties ([2]; 60° C., 10 days) | Color, properties ([2]; 60° C., 30 days) | Color, properties ([2]; 75% RH, 5 days) | Color, properties ([2]; 75% RH, 10 days) | Color, properties ([2]; 75% RH, 30 days) | Color, properties ([2]; 92.5% RH, 5 days) | Color, properties ([2]; 92.5% RH, 10 days) | Color, properties ([2]; 92.5% RH, 30 days) | Color, properties ([2]; Start, 0 days)
Unchanged: Crystal form [1] | Crystal form ([2]; 40° C., 5 days) | Crystal form ([2]; 40° C., 10 days) | Crystal form ([2]; 40° C., 30 days) | Crystal form ([2]; 60° C., 5 days) | Crystal form ([2]; 60° C., 10 days) | Crystal form ([2]; 60° C., 30 days) | Crystal form ([2]; 75% RH, 5 days) | Crystal form ([2]; 75% RH, 10 days) | Crystal form ([2]; 75% RH, 30 days) | Crystal form ([2]; 92.5% RH, 5 days) | Crystal form ([2]; 92.5% RH, 10 days) | Crystal form ([2]; 92.5% RH, 30 days)
98.34%: Purity % ([2]; 40° C., 5 days) | Purity % ([2]; 92.5% RH, 10 days) | Purity % ([2]; Start, 0 days)
98.45%: Purity % ([2]; 92.5% RH, 5 days)
5.96%: Hygroscopicity 20.0% RH-80.0% RH [1]

CC(C)(C#Cc1nc(C(Cc2cc(F)cc(F)c2)NC(=O)Cn2nc(C(F)(F)F)c3c2C(F)(F)C2CC32)c(-c2ccc(Cl)c3c([N-]S(C)(=O)=O)nn(CC(F)(F)F)c23)c2c1CCC2)S(C)(=O)=O.[Na+] (centres unmarked) [Crystal form IV of the sodium salt]
1.03%: Hygroscopicity 0.0% RH-95.0% RH [1]
changed: Crystal form [1]
0.45%: Hygroscopicity 20.0% RH-80.0% RH [1]
